Source: patent US20250339389A1, “N-ARACHIDONOYL ETHANOLAMINE COMPOSITION AND USE THEREOF” (NANJING NUTRABUILDING BIO-TECH CO., LTD., priority 2023, published 2025)

Legend:
Bacteroides/Firmicutes = assay: Relative abundance ratio of Bacteroides and Firmicutes in feces of high-fat diet mice (16S rDNA sequencing); format: in vivo; conditions: obese mice induced by high-fat diet, AEA 20 mg/kg once a day, four weeks
Experimental: (§1) After a week of adaptive feeding, mice were randomly divided into three groups according to sex and weight: group 1, normal group, n=10; group 2, high-fat diet group, n=10; and group 3, high-fat diet+AEA group, n=10. The normal group was given normal feed, while the high-fat diet group was given high-fat and high-sugar feed (containing 35% fat, 18% protein and 47% carbohydrate), and the high-fat diet+AEA group was given high-fat and high-sugar feed containing AEA (20 mg/kg), for four weeks. The specific gavage scheme is: calculate and gavage once a day according to the weight of mice, while the normal group gavage with the same amount of normal saline. Four samples of mouse feces were randomly taken from each group. The samples were first extracted for DNA, 16S rDNA was amplified by PCR, and then sequenced, and the relative abundance of each strain was analyzed.
Abundance ratio of Bacteroides and Firmicutes: Bacteroides is the representative of intestinal probiotics and Firmicutes is the representative of intestinal harmful bacteria. The higher the ratio, the healthier the intestinal flora is.

Roseburia = assay: Relative abundance of Roseburia in feces of high-fat diet mice (16S rDNA sequencing); format: in vivo; conditions: high-fat+AEA group, AEA 20 mg/kg once a day, four weeks
Experimental: as §1
(§2) FIG. 2 is a graph showing changes in the relative abundance of Roseburia. […] FIG. 3 is a graph showing changes in the relative abundance of Bacteroides. […] After AEA treatment, the level of Bacteroides in obese mice induced by high-fat diet increased by 20%. FIG. 4 is a graph showing changes in the relative abundance of Prevotella. […] After AEA treatment, the level of Prevotella in obese mice induced by high-fat diet increased by 25%. FIG. 5 is a graph showing changes in the relative abundance of Salmonella. […]

Bacteroides = assay: Relative abundance of Bacteroides in feces of high-fat diet mice (16S rDNA sequencing); format: in vivo; conditions: obese mice induced by high-fat diet, AEA 20 mg/kg once a day, four weeks
Experimental: as §1, §2

Prevotella = assay: Relative abundance of Prevotella in feces of high-fat diet mice (16S rDNA sequencing); format: in vivo; conditions: obese mice induced by high-fat diet, AEA 20 mg/kg once a day, four weeks
Experimental: as §1, §2

Salmonella = assay: Relative abundance of Salmonella in feces of high-fat diet mice (16S rDNA sequencing); format: in vivo; conditions: obese mice induced by high-fat diet, AEA 20 mg/kg once a day, four weeks
Experimental: as §1, §2

Escherichia coli = assay: Relative abundance of Escherichia coli in feces of high-fat diet mice (16S rDNA sequencing); format: in vivo; conditions: obese mice induced by high-fat diet, AEA 20 mg/kg once a day, four weeks
Experimental: as §1, §2

acute colitis model = assay: DSS-induced acute colitis model, disease activity index (DAI); format: in vivo, mice; conditions: 3% DSS for 9 days, AEA daily dose 2.5 mg/kg; model group close to 3
From the text: Experimental method: Thirty 4-6-week-old mice, 15 males and 15 females, were selected for adaptive feeding for 7 days in advance. They were randomly divided into control group (CON), model group (DSS) and administration group (DSS+AEA), with 10 mice in each group. The model group and the administration group were gavaged with 3% dextran sodium sulfate (DSS) for 9 days to establish an acute colitis model, while the control group was gavaged with the same amount of normal saline every day. The weight, feces and rectal bleeding of mice were recorded every day, and the disease activity index (DAI) was used to evaluate the condition of colitis. The DAI value was obtained by adding all the scores and dividing them by three. Mice in the administration group were given AEA at a daily dose of 2.5 mg/kg. On the 10th day, blood was taken from the orbit of each mouse, and then it was killed. Colon tissues were collected, fixed in 4% paraformaldehyde solution and stored at −80° C. for subsequent analysis. The pathological damage of colon tissue was examined by hematoxylin-eosin staining and Alxin blue staining.

[1] = system: mood and depressive behavior; assay: Forced swimming test; format: in vivo, C57BL/6J mice; conditions: AEA 20 mg/kg/day
Experimental: (§3) Experimental materials: The experimental animals used in this experiment are male C57BL/6J mice, 6 weeks old, with an initial weight of 18-22 g and SPF grade. The feeding environment of the mice is room temperature of 22±1° C. and humidity of 55±10%, and the mice are fed with normal feed. Mice were randomly divided into blank control group and AEA group, with 10 mice in each group. The AEA group was given a dose of 20 mg/kg/day, while the blank control group was given distilled water of the same volume.
(§4) Experimental method: Tail suspension test and forced swimming test were used to evaluate mood and depressive behavior. Forced swimming test: put a single mouse into a beaker and keep the water temperature at (25±2)° C. The experiment lasted for 6 min, and the immobility time of mice within 4 min was calculated. Tail suspension test: a mouse was fixed at the back ⅓ of the tail end with adhesive tape and hung upside down on an iron bar, with its head 10 cm away from the bottom of the box. The experiment lasted for 6 min, and the immobility time of mice within 4 min was calculated.

[2] = system: mood and depressive behavior; assay: Tail suspension test; format: in vivo, C57BL/6J mice; conditions: AEA 20 mg/kg/day
Experimental: as §3, §4

[3] = system: mechanical pain sensitivity; assay: SNL model (L5 spinal nerve ligation), Von Frey mechanical pain sensitivity; format: in vivo, ICR mice
Experimental: Experimental material: The experimental animals used in this experiment are male ICR mice, with an initial weight of 30±2 g and SPF grade. The feeding environment of the mice is room temperature of 22±2° C., and the humidity is controlled at 70%-80%. Mice were free to drink water and eat, and fed with normal feed.
Experimental method: Preparation of animal model: Establishment of SNL model of ligation of the fifth spinal nerve on the left lumbar vertebra in mice: After the animals were anesthetized with isoflurane, the L5 transverse process on the left back was exposed, the L5 nerve was dissociated and ligated with No.6 ophthalmic thread, and the wound was treated with penicillin and then sutured. In Sham group, only L5 transverse process was exposed without nerve ligation. After the model was established, the behavior of mice was observed, and the individuals with impaired motor behavior were excluded. […] Grouping and administration: Mice were randomly divided into Sham group, model group and AEA group (20 mg/kg/day), with 8 mice in each group. The three groups were administered by gavage for 16 d, wherein the Sham group and model group were given the same volume of distilled water by gavage. Von Frey method was used to detect the mechanical pain sensitivity of mice: after administration, the mice were placed in an organic glass box in a quiet room to adapt for 1.5 h, so that the mice were in a resting state. Von Frey fibers were used to continuously stimulate the L5 nerve reflex area on the sole of the operated hind limb for 3˜4 s, and the test was conducted for 4 times, with an interval of 5 min each time, and the threshold of 50% mechanical foot retraction of the hind paw was recorded.

CCCCC/C=C\C/C=C\C/C=C\C/C=C\CCCC(=O)NCCO [AEA, N-arachidonoyl ethanolamine]
ratio of Bacteroides/Firmicutes (Bacteroides/Firmicutes): increased after AEA administration, which was close to the level of normal group | level (relative abundance) of Roseburia (Roseburia): close to that in normal mice | increase of level of Bacteroides after AEA treatment (Bacteroides): 20% | increase of level of Prevotella after AEA treatment (Prevotella): 25% | decrease of Salmonella level after AEA treatment (Salmonella): 20% | decrease of level of Escherichia coli after AEA treatment (Escherichia coli): 42% | DAI score (acute colitis model): about 2 | reduction of immobility time compared with the blank group, forced swimming test [1]: 23% | reduction of immobility time compared with the blank group, tail suspension test [2]: 28% | threshold of 50% foot contraction ([3]; administration 1 d, AEA 20 mg/kg/day by gavage, SNL model 0.005 ± 0.002): 0.010 ± 0.010 | threshold of 50% foot contraction ([3]; administration 6 d, AEA 20 mg/kg/day by gavage, SNL model 0.019 ± 0.008): 0.067 ± 0.013 | threshold of 50% foot contraction ([3]; administration 11 d, AEA 20 mg/kg/day by gavage, SNL model 0.018 ± 0.018): 0.133 ± 0.023 | threshold of 50% foot contraction ([3]; administration 16 d, AEA 20 mg/kg/day by gavage, SNL model 0.020 ± 0.018): 0.193 ± 0.002 | threshold of 50% foot contraction compared with the SNL model (in words) ([3]; after 6 days of administration, AEA 20 mg/kg/day by gavage): increased significantly | threshold of 50% foot contraction ([3]; before modeling (baseline)): 0.323 ± 0.040
